In ChEMBL document CHEMBL1126956, “Synthesis and biological evaluation of cholecystokinin analogs in which the Asp-Phe-NH2 moiety has been replaced by a 3-amino-7-phenylheptanoic acid or a 3-amino-6-(phenyloxy)hexanoic acid” (J Med Chem, 1993):
Where a SMILES comes first, the peptide text is derived from it. [ ]: non-standard residue; d: D form. The star is where a group is joined. sY = N[C@@H](Cc1ccc(OS(=O)(=O)O)cc1)C(=O)O; NHPhenethyl = c1ccc(CCN*)cc1; OCH2CH2Ph = c1ccc(CCO*)cc1; Nle = CCCC[C@H](N)C(=O)O; Boc = CC(C)(C)OC(=O)*

What was measured:
[1] = biological target: T1, Gastrin/cholecystokinin type B receptor (Homo sapiens, UniProt P32239); assay: Inhibition of [125I]BH-CCK- binding to cholecystokinin type B receptor from jurkat Tcells; type: cell-based
T1 sequence (P32239 whole entry): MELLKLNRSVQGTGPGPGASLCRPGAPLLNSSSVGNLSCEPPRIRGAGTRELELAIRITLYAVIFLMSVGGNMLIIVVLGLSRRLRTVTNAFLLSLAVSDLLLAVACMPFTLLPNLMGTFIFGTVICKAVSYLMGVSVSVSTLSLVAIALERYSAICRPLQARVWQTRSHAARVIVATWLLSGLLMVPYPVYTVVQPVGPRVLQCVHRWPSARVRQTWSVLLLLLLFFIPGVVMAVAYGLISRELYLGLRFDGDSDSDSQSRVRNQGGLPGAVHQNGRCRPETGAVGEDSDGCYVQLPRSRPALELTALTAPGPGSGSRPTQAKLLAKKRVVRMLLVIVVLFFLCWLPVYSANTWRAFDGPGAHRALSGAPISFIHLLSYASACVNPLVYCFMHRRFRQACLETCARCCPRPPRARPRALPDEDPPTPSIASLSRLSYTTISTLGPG

[2] = biological target: Gastrin/cholecystokinin type B receptor (Cavia porcellus); assay: Inhibition of [125I]BH-CCK- binding to cholecystokinin type B receptor from guinea pig brain membranes
[3] = biological target: Cholecystokinin receptor type A (Rattus norvegicus) (UniProt P30551); assay: Inhibition of [125I]BH-CCK- binding to peripheral cholecystokinin type A receptor from rat pancreatic acini

| IC50 [1] | IC50 [2] | IC50 [3] | Compound |
| --- | --- | --- | --- |
| 210 nM |  |  | CCCC[C@H](NC(=O)[C@@H](Cc1c[nH]c2ccccc12)NC(=O)CNC(=O)[C@H](CCSC)NC(=O)[C@H](Cc1ccc(OS(=O)(=O)O)cc1)NC(=O)OC(C)(C)C)C(=O)N[C@@H](CC(=O)O)C(=O)OCCc1ccccc1 |
| 13 nM | 10 nM | 30 nM | CCCC[C@H](NC(=O)[C@H](Cc1ccc(OS(=O)(=O)O)cc1)NC(=O)OC(C)(C)C)C(=O)NCC(=O)N[C@@H](Cc1c[nH]c2ccccc12)C(=O)N[C@@H](CCCC)C(=O)N[C@@H](CC(=O)O)C(=O)NCCc1ccccc1 (Boc-[sY][Nle]GW[Nle]D-NHPhenethyl) |
| 2 nM |  | 3 nM | CCCC[C@H](NC(=O)[C@H](Cc1ccc(OS(=O)(=O)O)cc1)NC(=O)OC(C)(C)C)C(=O)NCC(=O)N[C@@H](Cc1c[nH]c2ccccc12)C(=O)N[C@@H](CCCC)C(=O)N[C@@H](CC(=O)O)C(=O)OCCc1ccccc1 (Boc-[sY][Nle]GW[Nle]D-OCH2CH2Ph) |
